Results: patent publication US8119681B2, “2-[1-phenyl-5-hydroxy or methoxy-4alpha-methyl-hexahydrocyclopenta [ƒ]indazole-5-YL]ethyl phenyl derivatives as glucocorticoid receptor ligands” (Merck Sharp & Dohme Corp., priority 2006, dated 2012)

The compounds below were run against T1, glucocorticoid receptor (GR) (Homo sapiens, UniProt P04150) (assay: Ligand binding assay (GR BIND), 3H-dexamethasone displacement, HeLa cell lysate). Conditions: Table 1; HeLa cell lysate, 3H-DEX.
T1 construct: endogenous in cells; host or cells: HeLa (ATCC) cell lysate supernatant
T1 sequence (P04150 1-777): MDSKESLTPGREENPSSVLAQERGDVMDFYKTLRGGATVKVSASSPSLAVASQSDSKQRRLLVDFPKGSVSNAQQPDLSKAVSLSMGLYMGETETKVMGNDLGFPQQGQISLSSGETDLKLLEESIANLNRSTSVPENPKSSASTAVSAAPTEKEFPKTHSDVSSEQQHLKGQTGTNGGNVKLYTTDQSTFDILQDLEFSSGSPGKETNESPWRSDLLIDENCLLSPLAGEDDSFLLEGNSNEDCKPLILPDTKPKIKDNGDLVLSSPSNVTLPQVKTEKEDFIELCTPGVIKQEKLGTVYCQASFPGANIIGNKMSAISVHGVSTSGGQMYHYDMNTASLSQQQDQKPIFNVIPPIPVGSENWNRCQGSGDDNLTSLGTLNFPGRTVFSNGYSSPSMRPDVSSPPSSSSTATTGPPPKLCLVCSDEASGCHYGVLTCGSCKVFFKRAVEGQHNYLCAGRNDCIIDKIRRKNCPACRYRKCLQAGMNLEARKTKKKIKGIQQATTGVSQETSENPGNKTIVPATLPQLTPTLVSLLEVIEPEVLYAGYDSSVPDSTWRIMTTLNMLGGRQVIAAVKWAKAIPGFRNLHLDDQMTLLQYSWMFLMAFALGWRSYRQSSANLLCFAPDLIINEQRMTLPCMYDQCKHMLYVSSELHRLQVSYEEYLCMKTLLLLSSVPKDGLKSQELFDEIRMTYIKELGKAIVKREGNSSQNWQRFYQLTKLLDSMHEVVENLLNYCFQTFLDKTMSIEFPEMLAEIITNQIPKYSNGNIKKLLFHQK
Procedure, shortened: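 HeLa cell lysate supernatant in TEGM (pH 7.2, molybdate) incubated overnight at 4 °C with 3H-dexamethasone trace (6 nM stock) and serially diluted compound, 2% EtOH final. Bound receptor captured on hydroxylapatite, filtered and counted by scintillation; IC50 calculated with dexamethasone as reference.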

| SMILES | Ki [nM] |
| --- | --- |
| C[C@]12Cc3cnn(-c4ccc(F)cc4)c3C=C1CC[C@@]2(O)CCc1ccccc1CC(N)=O [Example 107, 2-(2-{2-[(4αS,5R)-1-(4-fluorophenyl)-5-hydroxy-4α-methyl-1,4,4α,5,6,7-hexahydrocyclopenta[f]indazol-5-yl]ethyl}phenyl)acetamide] | 2.32 |
| CN(C)S(=O)(=O)Nc1c(F)cccc1CC[C@]1(O)CCC2=Cc3c(cnn3-c3ccc(F)cc3)C[C@@]21C [Example 113, N′-(2-fluoro-6-{2-[(4αS,5R)-1-(4-fluorophenyl)-5-hydroxy-4α-methyl-1,4,4α,5,6,7-hexahydrocyclopenta[f]indazol-5-yl]ethyl}phenyl)-N,N-dimethylsulfamide] | 2.66 |
| CCS(=O)(=O)Nc1ccccc1CC[C@]1(O)CCC2=Cc3c(cnn3-c3ccc(F)cc3)C[C@@]21C [Example 114, N-(2-{2-[(4αS,5R)-1-(4-fluorophenyl)-5-hydroxy-4α-methyl-1,4,4α,5,6,7-hexahydrocyclopenta[f]indazol-5-yl]ethyl}phenyl)ethanesulfonamide] | 2.77 |
| CN(C)S(=O)(=O)c1ccccc1CC[C@]1(O)CCC2=Cc3c(cnn3-c3ccc(F)cc3)C[C@@]21C [Example 138, 2-{2-[(4αS,5R)-1-(4-fluorophenyl)-5-hydroxy-4α-methyl-1,4,4α,5,6,7-hexahydrocyclopenta[f]indazol-5-yl]ethyl}-N,N-dimethylbenzenesulfonamide] | 0.84 |
| CCS(=O)(=O)c1ccccc1CC[C@]1(O)CCC2=Cc3c(cnn3-c3ccc(F)cc3)C[C@@]21C [Example 143, (4αS,5R)-5-{2-[2-(ethylsulfonyl)phenyl]ethyl}-1-(4-fluorophenyl)-4α-methyl-1,4,4α,5,6,7-hexahydrocyclopenta[f]indazol-5-ol] | 1.44 |
| C[C@]12Cc3cnn(-c4ccc(F)cc4)c3C=C1CC[C@@]2(O)CCc1ccccc1S(=O)(=O)C1CC1 [Example 144, (4αS,5R)-5-{2-[2-(cyclopropylsulfonyl)phenyl]ethyl}-1-(4-fluorophenyl)-4α-methyl-1,4,4α,5,6,7-hexahydrocyclopenta[f]indazol-5-ol] | 1.32 |
| C[C@]12Cc3cnn(-c4ccc(F)cc4)c3C=C1CC[C@@]2(O)CCc1cccc(F)c1CO [Example 148, (4αS,5R)-5-{2-[3-fluoro-2-(hydroxymethyl)phenyl]ethyl}-1-(4-fluorophenyl)-4α-methyl-1,4,4α,5,6,7-hexahydrocyclopenta[f]indazol-5-ol] | 0.67 |
| C[C@]12Cc3cnn(-c4ccc(F)cc4)c3C=C1CC[C@@]2(O)CCc1cccc(F)c1[C@H](N)C(F)(F)F [Example 151, (4αS,5R)-5-(2-{2-[(1S)-1-amino-2,2,2-trifluoroethyl]-3-fluorophenyl}ethyl)-1-(4-fluorophenyl)-4α-methyl-1,4,4α,5,6,7-hexahydrocyclopenta[f]indazol-5-ol] | 1.74 |
| C[C@]12Cc3cnn(-c4ccc(F)cc4)c3C=C1CC[C@@]2(O)CCc1cccc(F)c1[C@@H](N)C(F)(F)F [Example 152, (4αS,5R)-5-(2-{2-[(1R)-1-amino-2,2,2-trifluoroethyl]-3-fluorophenyl}ethyl)-1-(4-fluorophenyl)-4α-methyl-1,4,4α,5,6,7-hexahydrocyclopenta[f]indazol-5-ol] | 2.6 |
| C[C@]12Cc3cnn(-c4ccc(F)cc4)c3C=C1CC[C@@]2(O)CCc1ccccc1C(=O)N1CC(=O)C1 [Example 156, 1-(2-{2-[(4αS,5R)-1-(4-fluorophenyl)-5-hydroxy-4α-methyl-1,4,4α,5,6,7-hexahydrocyclopenta[f]indazol-5-yl]ethyl}benzoyl)azetidin-3-one] | 2.9 |
| CC(=O)Cc1ccccc1CC[C@]1(O)CCC2=Cc3c(cnn3-c3ccc(F)cc3)C[C@@]21C [Example 157, 1-(2-{2-[(4αS,5R)-1-(4-fluorophenyl)-5-hydroxy-4α-methyl-1,4,4α,5,6,7-hexahydrocyclopenta[f]indazol-5-yl]ethyl}phenyl)acetone] | 1.5 |
| C[C@]12Cc3cnn(-c4ccc(F)cc4)c3C=C1CC[C@@]2(O)CCc1ccc(F)cc1C(N)=O [Example 159, 5-fluoro-2-{2-[(4αS,5R)-1-(4-fluorophenyl)-5-hydroxy-4α-methyl-1,4,4α,5,6,7-hexahydrocyclopenta[f]indazol-5-yl]ethyl}benzamide] | 2.96 |
| C[C@]12Cc3cnn(-c4ccc(F)cc4)c3C=C1CC[C@@]2(O)/C=C/c1ccccc1S(N)(=O)=O [Example 160, 2-{(E)-2-[(4αS,5R)-1-(4-fluorophenyl)-5-hydroxy-4α-methyl-1,4,4α,5,6,7-hexahydrocyclopenta[f]indazol-5-yl]vinyl}benzenesulfonamide] | 0.94 |
| C[C@]12Cc3cnn(-c4ccc(F)cc4)c3C=C1CC[C@@]2(O)CCc1ccc(F)cc1C#N [Example 163, 5-fluoro-2-{2-[(4αS,5R)-1-(4-fluorophenyl)-5-hydroxy-4α-methyl-1,4,4α,5,6,7-hexahydrocyclopenta[f]indazol-5-yl]ethyl}benzonitrile] | 0.17 |
| C[C@]12Cc3cnn(-c4ccc(F)c(F)c4)c3C=C1CC[C@@]2(O)CCc1cccc(F)c1C(N)=O [Example 168, 2-{2-[(4α,5R)-1-(3,4-difluorophenyl)-5-hydroxy-4α-methyl-1,4,4α,5,6,7-hexahydrocyclopenta[f]indazol-5-yl]ethyl}-6-fluorobenzamide] | 2.16 |
| C[C@]12Cc3cnn(-c4ccc(F)cc4)c3C=C1CC[C@@]2(O)CCc1ccc(Cl)cc1C(N)=O [Example 170, 5-chloro-2-{2-[(4αS,5R)-1-(4-fluorophenyl)-5-hydroxy-4α-methyl-1,4,4α,5,6,7-hexahydrocyclopenta[f]indazol-5-yl]ethyl}benzamide] | 2.12 |
| C[C@]12Cc3cnn(-c4ccc(F)c(F)c4)c3C=C1CC[C@@]2(O)CCc1ccccc1C(N)=O [Example 172, 2-{2-[(4αS,5R)-1-(3,4-difluorophenyl)-5-hydroxy-4α-methyl-1,4,4α,5,6,7-hexahydrocyclopenta[f]indazol-5-yl]ethyl}benzamide] | 6.59 |
| Cc1ccc(C(N)=O)c(CC[C@]2(O)CCC3=Cc4c(cnn4-c4ccc(F)cc4)C[C@@]32C)c1 [Example 174, 2-{2-[(4αS,5R)-1-(4-fluorophenyl)-5-hydroxy-4α-methyl-1,4,4α,5,6,7-hexahydrocyclopenta[f]indazol-5-yl]ethyl}-4-methylbenzamide] | 4.76 |
| C[C@]12Cc3cnn(-c4ccc(Cl)cc4)c3C=C1CC[C@@]2(O)CCc1cccc(F)c1C(N)=O [Example 185, 2-{2-[(4αS,5R)-1-(4-chlorophenyl)-5-hydroxy-4α-methyl-1,4,4α,5,6,7-hexahydrocyclopenta[f]indazol-5-yl]ethyl}-6-fluorobenzamide] | 1.93 |
| COc1cccc(CC[C@]2(O)CCC3=Cc4c(cnn4-c4ccc(F)cc4)C[C@@]32C)c1C(N)=O [Example 189, 2-{2-[(4αS,5R)-1-(4-fluorophenyl)-5-hydroxy-4α-methyl-1,4,4α,5,6,7-hexahydrocyclopenta[f]indazol-5-yl]ethyl}-6-methoxybenzamide] | 1.55 |
| Cc1cccc(CC[C@]2(O)CCC3=Cc4c(cnn4-c4cccc(F)c4)C[C@@]32C)c1C(N)=O [Example 191, 2-{2-[(4αS,5R)-1-(3-fluorophenyl)-5-hydroxy-4α-methyl-1,4,4α,5,6,7-hexahydrocyclopenta[f]indazol-5-yl]ethyl}-6-methylbenzamide] | 2.51 |
| C[C@]12Cc3cnn(-c4ccc(F)cc4)c3C=C1CC[C@@]2(O)CCc1cccc(F)c1CC(N)=O [Example 194, 2-(2-fluoro-6-{2-[(4αS,5R)-1-(4-fluorophenyl)-5-hydroxy-4α-methyl-1,4,4α,5,6,7-hexahydrocyclopenta[f]indazol-5-yl]ethyl}phenyl)acetamide] | 1.48 |
| C[C@]12Cc3cnn(-c4ccc(F)cc4)c3C=C1CC[C@@]2(O)CCc1cccc(Cl)c1CC(N)=O [Example 197, 2-(2-chloro-6-{2-[(4αS,5R)-1-(4-fluorophenyl)-5-hydroxy-4α-methyl-1,4,4α,5,6,7-hexahydrocyclopenta[f]indazol-5-yl]ethyl}phenyl)acetamide] | 1.41 |
| CCC(O)(C(N)=O)c1ccccc1CC[C@]1(O)CCC2=Cc3c(cnn3-c3ccc(F)cc3)C[C@@]21C (stereo partly drawn) [Example 199, 2-(2-{2-[(4αS,5R)-1-(4-fluorophenyl)-5-hydroxy-4α-methyl-1,4,4α,5,6,7-hexahydrocyclopenta[f]indazol-5-yl]ethyl}phenyl)-2-hydroxybutanamide] | 4.55 |
| CC(C)C(O)(C(N)=O)c1ccccc1CC[C@]1(O)CCC2=Cc3c(cnn3-c3ccc(F)cc3)C[C@@]21C (stereo partly drawn) [Example 201, 2-(2-{2-[(4αS,5R)-1-(4-fluorophenyl)-5-hydroxy-4α-methyl-1,4,4α,5,6,7-hexahydrocyclopenta[f]indazol-5-yl]ethyl}phenyl)-2-hydroxy-3-methylbutanamide] | 5.62 |

The compounds below were run against T2, human GR (Homo sapiens, UniProt P04150) (assay: Trans-Activation Modulation of Glucocorticoid Receptor (GRAMMER), MMTV-LUC reporter gene). Conditions: Table 1, Emax relative to 300 nM dexamethasone.
T2 sequence (P04150 1-777): T1 sequence (P04150 1-777)
Format: cell-based
Design: endogenous in cells

| SMILES | Transactivation A549 Cells GRAMMER Emax (%) |
| --- | --- |
| C[C@]12Cc3cnn(-c4ccc(F)cc4)c3C=C1CC[C@@]2(O)/C=C/c1ccccc1S(N)(=O)=O [Example 160, 2-{(E)-2-[(4αS,5R)-1-(4-fluorophenyl)-5-hydroxy-4α-methyl-1,4,4α,5,6,7-hexahydrocyclopenta[f]indazol-5-yl]vinyl}benzenesulfonamide] | 30 |
